The target in one assay is T1, EPAC1-CNBD (Homo sapiens, UniProt O95398).
T1 sequence (O95398 169-318 isoform O95398-3): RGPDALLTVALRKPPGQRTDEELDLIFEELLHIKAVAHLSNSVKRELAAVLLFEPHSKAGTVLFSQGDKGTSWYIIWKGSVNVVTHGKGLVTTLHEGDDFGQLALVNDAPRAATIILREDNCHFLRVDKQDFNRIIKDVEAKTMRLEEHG
Put plainly: 8-NBD-cAMP competition binding assay, EPAC1-CNBD. The following applies: for EPAC1 binding potency / affinity in words: SAR comment on RFI, mostly relative to 3 or 9a; for RFI (%) (relative fluorescence intensity), Table 4: compound 10 µM, EPAC1-CNBD 0.8 µM, 8-NBD-cAMP 62.5 nM, mean ± SEM, lower RFI = stronger binding; for IC50: read-out: IC50 for the EPAC1-CNBD, dose-response, FIG. 3; for IC50 values as EPAC1 binders (in words): summary statement.

The next assay concerns over 40 GPCR targets. Put plainly: Counter screening over a panel of GPCR targets. The following applies: panel of over 40 GPCR proteins. Format: binding.
Another assay concerns the target T2, EPAC1 (Homo sapiens, UniProt O95398).
T2 sequence (O95398 1-923): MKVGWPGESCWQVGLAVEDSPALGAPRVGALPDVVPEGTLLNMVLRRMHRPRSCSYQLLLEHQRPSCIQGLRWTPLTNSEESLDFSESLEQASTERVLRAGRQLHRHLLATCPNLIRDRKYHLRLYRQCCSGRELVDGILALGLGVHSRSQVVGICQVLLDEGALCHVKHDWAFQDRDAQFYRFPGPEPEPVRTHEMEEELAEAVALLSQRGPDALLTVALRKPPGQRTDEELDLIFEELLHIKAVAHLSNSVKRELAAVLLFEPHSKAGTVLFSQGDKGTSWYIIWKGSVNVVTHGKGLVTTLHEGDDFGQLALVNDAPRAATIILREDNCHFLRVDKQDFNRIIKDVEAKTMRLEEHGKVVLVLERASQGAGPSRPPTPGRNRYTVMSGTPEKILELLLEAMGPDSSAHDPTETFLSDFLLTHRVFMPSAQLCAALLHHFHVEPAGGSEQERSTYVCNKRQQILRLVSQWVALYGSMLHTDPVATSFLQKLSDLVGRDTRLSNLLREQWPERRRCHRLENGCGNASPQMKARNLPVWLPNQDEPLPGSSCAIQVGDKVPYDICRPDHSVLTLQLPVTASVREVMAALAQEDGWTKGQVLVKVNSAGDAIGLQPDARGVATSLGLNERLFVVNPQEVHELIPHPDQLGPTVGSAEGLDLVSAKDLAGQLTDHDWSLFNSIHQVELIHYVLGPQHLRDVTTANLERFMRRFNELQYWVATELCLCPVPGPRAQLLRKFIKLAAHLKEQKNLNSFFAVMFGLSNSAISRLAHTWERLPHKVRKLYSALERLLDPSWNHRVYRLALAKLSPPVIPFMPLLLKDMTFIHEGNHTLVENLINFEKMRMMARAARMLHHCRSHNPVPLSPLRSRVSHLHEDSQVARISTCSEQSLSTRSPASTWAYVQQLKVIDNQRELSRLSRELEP
Put plainly: Protein stability of EPAC1 in cells following long-term exposure. The assay is classed as cell-based. Set-up: expressed in transfected cells; host or cells: U2OS cells (from Professor Holger Rehmann, University of Utrecht). The following applies: compared with I942.

On to `COc1ccc(S(=O)(=O)NC(=O)COc2ccc3ccccc3c2)c(OC)c1` [Compound 25g, N-((2,4-Dimethoxyphenyl)sulfonyl)-2-(naphthalen-2-yloxy)acetamide], for which, on EPAC1-CNBD, the “EPAC1 binding potency / affinity in words” value was “much more potent”; the “RFI (%) (relative fluorescence intensity), Table 4” value is recorded as 23 ± 4%; the concentration for half-maximal inhibition (IC50) came to 4.8 µM; the “IC50 values as EPAC1 binders (in words)” value is reported as “low micromolar to sub-micromolar”.
In the case of `COc1ccc2ccc(OCC(=O)NS(=O)(=O)c3ccc(N)cc3OC)cc2c1` [Compound 25n, N-((4-Amino-2-methoxyphenyl)sulfonyl)-2-((7-methoxynaphthalen-2-yl)oxy)acetamide], the “off-target effects towards GPCR proteins” value in the assay with over 40 GPCR targets is “none of them displays the potential off-target effects”. For the same molecule, on EPAC1-CNBD, the “RFI (%) (relative fluorescence intensity), Table 4” value turned out to be 7 ± 1%; the half-inhibitory concentration (IC50) is 0.9 µM; the “IC50 values as EPAC1 binders (in words)” value was “low micromolar to sub-micromolar”. Also, the “tolerability in terms of protein stability of EPAC1 in cells” value on EPAC1 is listed as “better tolerated”.
Consider `COc1ccc2ccc(OCC(=O)NS(=O)(=O)c3ccc4ccccc4c3)cc2c1` [Compound 25q, 2-((7-Methoxynaphthalen-2-yl)oxy)-N-(naphthalen-2-ylsulfonyl)acetamide], for which the “off-target effects towards GPCR proteins” value in the assay with over 40 GPCR targets is “none of them displays the potential off-target effects”. For the same molecule, on EPAC1-CNBD, the “EPAC1 binding potency / affinity in words” value is “significantly enhanced binding potency”; the “RFI (%) (relative fluorescence intensity), Table 4” value was determined as 14 ± 3%; the IC50 was found to be 2.2 µM; the “IC50 values as EPAC1 binders (in words)” value is “low micromolar to sub-micromolar”.
